{"source": "paper PMC5453931", "about": "“Cathelicidin-trypsin inhibitor loop conjugate represents a promising antibiotic candidate with protease stability” (Scientific Reports, 2017)", "key": {"[1]": {"system": "E. coli 08040726", "assay": "Bacterial killing kinetic assay, colony counting", "format": "cell-based", "method": "The bacterial killing kinetics of the hybrid peptides against E. coli 08040726 was determined by counting the changes in the viable bacterial clones after peptide treatment. The experiment was carried out according to the method described previously with minor modifications. Fresh colonies of the bacteria were incubated in MH broth at 37 °C for 12 h and diluted to 10^6 CFU/in fresh MH broth. The hybrid peptide was added to the bacterial suspension with a final concentration of 1x and 5x corresponding MICs, and incubated at 37 °C for 0, 10, 20, 30, 45, 60, 90, 120, and 180 mins. At each time point, aliquots (50 μL) were removed and diluted with fresh MH broth for 1000 times. […] of the dilutions were coated on MH agar plates, incubated overnight at 37 °C, and the viable colonies were counted. Ampicillin was used as positive control and sterile deionized water was used as negative control."}, "[2]": {"system": "trypsin or proteinase K", "conditions": "peptide:protease 300/1 mol/mol, 30 min, 37 °C, then 1 × MIC 2 h with E. coli, S. aureus, C. albicans; colony counting; Fig. 3E"}, "[3]": {"system": "established C. albicans biofilm", "assay": "Biofilm disruption assay, established biofilm (XTT, PI/SYBR Green I)", "format": "cell-based", "method": "TIH3F that has the best antifungal activity among the four peptides was chosen to examine the effect on the C. albicans biofilm formation and the established biofilm using previously described method with minor modifications. In the biofilm inhibition assay, after the incubation at 35 °C, C. Albicans was diluted to 1 × 10^6 CFU/mL in RPMI-1640 medium. Then 2 mL culture was added to each well of 6-well plates with coverslips at the bottom, and incubated at 35 °C in a humid chamber for 3 h. Non-adherent cells were then washed away by PBS, and series concentrations of TIH3F (0, 1, 2, 4 μg/mL) were added into the plate, with amphotericin B as control. The formation of the biofilm was determined by the XTT Cell Proliferation and Cytotoxicity Kit (KeyGEN BioTECH, Nanjing, China) after 36-h incubation. In the biofilm disruption assay, the biofilm was preformed as described above but with a longer incubation time up to 72 h. Then TIH3F and amphotericin B of series concentrations (0, 2.5, 5, 10, 25, 50 μg/mL) was added after non-adherent cells were washed out. The measurement of remaining biofilm was then determined. In order to further confirm the antifungal effect of TIH3F against C. albicans encased in biofilms, the established biofilm was treated with TIH3F (0, 5, 50 μg/mL), washed three times with PBS, and finally stained with 1 mL 1000-fold diluted PI/SYBR Green I at 30 °C in the dark for 20 min. After washing with PBS, the plate was immediately photographed with fluorescence microscope."}, "[4]": {"system": "E. coli ATCC25922", "assay": "Thermal stability of antimicrobial activity", "format": "physicochemical", "conditions": "2 mg/mL in water, up to 96 h, E. coli ATCC25922, 1 × MIC, Fig. 3D", "method": "Thermal stability of Hc-3 and hybrid peptides was examined according to the method described in our previous work[31]. Peptide was dissolved in sterile deionized water to a final concentration of 2 mg/mL, and incubated at 37 °C for 0–96 h. At each time point, the bacteria colonies of E. coli ATCC25922 survived 1 × MIC were measured."}, "[5]": {"conditions": "20% fresh human serum, 37 °C, colonies surviving 1 × MIC, Fig. 3B"}, "[6]": {"system": "Raw264.7 cells", "assay": "LPS-induced iNOS, cytokine and chemokine transcription (q-PCR)", "format": "cell-based, Murine", "conditions": "LPS 100 ng/mL, 6 h, q-PCR normalized to GAPDH; Fig. 6", "method": "Murine macrophage Raw264.7 cells (3 × 10^5/well) were treated with series concentrations of hybrid peptides and LPS (100 ng/mL) for 6 h. Total RNA was isolated using RNAiso Plus kit (Takara) and synthesized into cDNA with PrimeScript Reverse Transcriptase (Takara). The cDNA was assessed by q-PCR using SYBR green master mix kit (Takara) on a Realplex Mastercycler (Eppendorf, Germany). Gene expression was calculated after being normalized to those of GAPDH levels by Δ Δ Ct method27. The accuracy of the amplification reactions was achieved by melt curve analysis."}, "[7]": {"system": "E. coli", "assay": "pH stability of antimicrobial activity", "format": "physicochemical", "conditions": "HCl or NaOH solution, 2 mg/mL, 37 °C, 24 h, then 1 × MIC for 2 h, CFU; Fig. 3C", "method": "Peptide was dissolved in HCl solution or NaOH solution to a final concentration of 2 mg/mL with pH value ranging from 1.0 to 11.0, and incubated at 37 °C for 24 h[64]. […] The diluted aliquots were seeded at MH agar plates and the CFU were scored after 24 h incubation at 37 °C. The number of CFU grown out of MH broth without peptide was served as control."}, "[8]": {"target": "trypsin", "assay": "Trypsin inhibition assay (NBLAN hydrolysis, Dixon method)", "format": "biochemical", "conditions": "50 mM Tris–HCl pH 7.8, trypsin 0.1 mg/mL, 5 min pre-incubation at 37 °C, substrate NBLAN 48, 96, 192 μg/mL, 405 nm", "summary_of_the_method": "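Trypsin (0.1 mg/mL final) pre-incubated 5 min at 37 °C with hybrid peptide at […] final, in 50 mM Tris–HCl, pH 7.8, at room temperature. Reaction started with NBLAN at 48, 96 or 192 μg/mL final; p-nitroaniline monitored continuously at 405 nm. Ki determined by the Dixon method.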"}, "[9]": {"system": "E. coli ATCC25922", "assay": "Salt stability of antimicrobial activity", "format": "cell-based", "conditions": "1 × MIC, Fig. 3A", "method": "To determine the effect of salt on the antimicrobial activity of the parental and hybrid peptides, the bacteria colonies survived 1 × MIC of peptide in the presence of salt were counted. Briefly, E. coli ATCC25922 were diluted into decent concentration and mixed with each kind of peptide solution of 1 × MIC supplemented with NaCl (0, 50, 100, 150, 200 and 400 mM), respectively. […] The salt stability of the peptides was assessed by the number of colonies."}}, "note": "Where a SMILES comes first, the peptide text is derived from it. Bridges are numbered along the chain shown (N, C = ends)."}
{"smiles": "CC[C@H](C)[C@@H]1NC(=O)[C@H](CO)NC(=O)[C@H](CCCCN)NC(=O)[C@H]([C@@H](C)O)NC(=O)[C@H](Cc2c[nH]c3ccccc23)NC(=O)[C@@H](N)CSSC[C@@H](C(=O)N[C@@H](CCCCN)C(=O)N[C@@H](Cc2ccccc2)C(=O)N[C@@H](Cc2ccccc2)C(=O)N[C@@H](CCCCN)C(=O)N[C@@H](CCCNC(=N)N)C(=O)N[C@@H](Cc2ccccc2)C(=O)N[C@@H](Cc2ccccc2)C(=O)N[C@@H](CCCCN)C(=O)N[C@@H](CO)C(=O)N[C@@H](Cc2ccccc2)C(=O)N[C@@H](CCCNC(=N)N)C(=O)N[C@@H](CCCNC(=N)N)C(=O)N[C@@H](C)C(=O)N[C@@H](Cc2ccccc2)C(=O)N[C@@H](CCCCN)C(=O)N[C@@H](CCCCN)C(=O)N[C@@H](Cc2ccccc2)C(N)=O)NC(=O)[C@@H]2CCCN2C(=O)[C@H](CCCCN)NC(=O)[C@@H]2CCCN2C(=O)[C@@H]2CCCN2C1=O", "note": "[TIH3F] (H-CWTKSIPPKPCKFFKRFFKSFRRAFKKF-NH2; disulfide 1-11)", "values": [{"measurement": "time of killing toward E. coli", "setting": "[1]; 1xMIC", "value": "≤ 2", "unit": "h"}, {"measurement": "time of killing toward E. coli", "setting": "[1]; 5xMIC", "value": "≤ 0.5", "unit": "h"}, {"measurement": "antimicrobial activity after treatment with trypsin or proteinase K", "setting": "[2]", "value": "negligible antimicrobial activity decrease"}, {"measurement": "damage of established C. albicans biofilm", "setting": "[3]; 5 μg/mL, biofilm preformed 72 h, XTT metabolic activity, Fig. 2B", "value": 50, "unit": "%"}, {"measurement": "killing of C. albicans in preformed biofilm", "setting": "[3]; 50 μg/mL, PI/SYBR Green I staining, fluorescence microscopy, Fig. 2C", "value": "destroy all of the cell membranes"}, {"measurement": "antimicrobial activity after incubation at 37 °C", "setting": "[4]", "value": "maintained its potent antimicrobial activity"}, {"measurement": "kill (%) after incubation with human serum", "setting": "[5]; 6 h", "value": 75, "unit": "%"}, {"measurement": "kill (%) / antimicrobial activity kept after incubation with human serum", "setting": "[5]; 36 h", "value": 65, "unit": "%"}, {"measurement": "LPS-induced mRNA of iNOS, TNF-α, IL-1β, IL-6, MCP-1", "setting": "[6]", "value": "strongest inhibitory effect"}, {"measurement": "antimicrobial activity against E. coli after incubation at pH 1.0–11.0", "setting": "[7]", "value": "unaffected"}, {"measurement": "Ki", "setting": "[8]", "value": 1.5, "unit": "µM"}, {"measurement": "antimicrobial activity (kill %) in presence of salt", "setting": "[9]; 50 mM NaCl, colony counting", "value": "not affected"}, {"measurement": "kill (%) in presence of salt", "setting": "[9]; NaCl increased from 100 mM up to 200 mM", "value": "declined by half"}, {"measurement": "killing effect in presence of salt", "setting": "[9]; NaCl raised from 100 mM to 400 mM", "value": "decreased by half"}]}
